Laboratory results from US20110150959A1, “WIPE WITH ODOUR CONTROL SUBSTANCE” (SCA Hygiene Products AB, priority 2008, published 2011).

Key:
[1] = Odour reduction by lipid-treated fluff pulp, headspace SPME-GC/MS; details: pulp with 30% by weight lipid; 1000 ng/ml odour substance; 3 h + 0.5 h at 35° C.; vs untreated pulp
Method: Sheets of sulfate pulp from Weyerhaeuser Inc., with the designation NB416, were impregnated with a solution of the tested oil/fat in hexane. To a pulp sheet weighing 10 g was added a solution of 4.29 g oil in 4.29 g hexane. The solution was evenly distributed over the surface of the sheets. When the hexane had evaporated the sheets contained 30% by weight oil/fat and 70% by weight pulp fibers. The treated sheets were defibrated in a Braun multimixer MX32 to produce fluff pulp.
1 g of treated pulp was put in a 60 ml vial, after which 3.9 ml of 0.01 M phosphate buffered saline solution pH 7.4 from Sigma was added. Then 0.1 ml PEG300 with DMS (dimethyl sulfide), DMDS (dimethyl disulfide) and IVA (isovaleric aldehyde) was added so that the concentration of each odour substance in the final solution was 1000 ng/ml.
After 3 h at 35° C. a SPME fiber (Supelco), 75 μm Carboxen-PDMS, was injected into the headspace above the pulp and after an additional 0.5 h the SPME fiber was analyzed with gas chromatography (GC), Thermo Finnigan Trace, with a MS detector. The peak area of each odour substance was determined for samples with treated pulp and the untreated reference pulp. The GC settings were:
Temperature program for GC: 30° C. (7 min), 3° C./min-70° C. (0 min), 40° C./min-250° C. (7 min). Column: ZB-624 (Zebron), 30 m, 0.25 mm i.d. 1.40 μm film thickness Inlet temperature: 250° C. Transfer line: 220° C.
MS: SIM (single ion monitoring). When DMS, IVA and DMDS were analyzed the following mass numbers were detected: 45, 46, 47, 57, 58, 61, 62, 79, 86 and 94.
The odour reduction was determined by comparing the peak area of the tested sample with the same peak area achieved when testing the untreated reference pulp. The calculation of the odour reduction in percent was made by the equation:
Odour reduction=100×(1−Actual peak area/Peak area of sample with untreated pulp)
These ozonized lipids were tested for their odour reducing effect on treated pulp in the same manner as under Trial 1 above. The only exception in the laboratory procedure was the method for treatment of the pulp with Acolectin.

[2] = autoxidation at 100° C., fatty acids not treated with antioxidants; cited from earlier work
[3] = Odour reduction by lipid-treated spunlaced nonwoven wipes, headspace SPME-GC/MS; details: 1 g spunlaced nonwoven treated with 2 g lipid; 1000 ng/ml odour compound
Method: A spunlaced nonwoven with the trade name Fibrella 7160, available from Suominen (Finland) was used in these experiments. This material, which consists of about 60% polypropylene fibres and 40% rayon fibres, has a basis weight of about 50 g/m^2. Pieces with a weight of 1 g and an area of 0.020 m^2 were cut from the spunlaced nonwoven sheet. These pieces were then treated with lipids. 2 g of the lipid was dissolved in 4 g of either hexane or acetone and evenly distributed on the piece of nonwoven. Acetone was used to dissolve all ozonated oils and oleic acid while the other not ozonated oils where dissolved in hexane. After several hours, when the solvent had evaporated, the nonwoven pieces were folded and inserted into 60 ml vials, used for SPME analysis. The vials were then flushed with nitrogen gas and sealed.
Vials with a volume of 60 ml containing 1 g spunlaced nonwoven treated with 2 g lipid were used in these tests. The laboratory procedure was the same as earlier described when evaluating the odour reduction of fluffed pulp, see page 10-11. To each vial was added 3.9 ml phosphate buffered saline solution, pH 7.4 and 0.1 ml PEG300 with DMS, DMDS and IVA. The total concentration of each odour compound was 1000 ng/ml.

[4] = Peroxide value, AOCS Official Method Cd 8-53; format: physicochemical; details: Trial 2 lipids after ozonization; lipids used for treatment of wipes
Method: The degree of oxidation was tested by determining the peroxide value according to the test method AOCS Official Method Cd 8-53 Surplus 2003. The peroxide value for both the starting oils/fats and the ozonized oils/fats was determined.

## CCCCC/C=C\C/C=C\CCCCCCCC(=O)OCC [Ethyl linoleate, ethyl linoleate]
[1]
  Reduction of odour substances in %, DMDS: 0%
  Reduction of odour substances in %, DMS: 0%
  Reduction of odour substances in %, IVA: 0%

## CCCCCCCCCCCCCCCCCC(=O)O [Stearic acid]
[2]
  Relative rate of oxidation: 0.6

## CCCCCCCC/C=C\CCCCCCCC(=O)O [Oleic acid, oleic acid]
[3]
  Reduction of odour substances in %, DMDS: 83.6%
  Reduction of odour substances in %, DMS: 67.4%
  Reduction of odour substances in %, IVA: 74.5%
[2]
  Relative rate of oxidation: 6
[4]
  Peroxide value: 3.1 meqv./kg
[1]
  Reduction of odour substances in %, DMDS: 19.2%
  Reduction of odour substances in %, DMS: 67.5%
  Reduction of odour substances in %, IVA: 9.3%

## CCCCC/C=C\C/C=C\CCCCCCCC(=O)O [Linoleic acid]
[2]
  Relative rate of oxidation: 64
